Source: US20250101039A1, “RIFAMYCIN DERIVATIVES FOR THE TREATMENT OF DISEASES” (priority 2022, published 2025)
In brackets after ≈: the same amount, converted by molar mass. Like-named read-outs stand apart in the source and are kept apart here.

Columns and labels:
S. aureus = assay: MIC by broth microdilution, S. aureus; assay type: cell-based, Staphylococcus aureus; details: cation adjusted Mueller Hinton broth, 35° C. 20 hours
A. baumannii = assay: MIC by broth microdilution, A. baumannii (WT); assay type: cell-based, Acinetobacter baumannii
[1] = tested on: Enterococcus faecium (strain NCTC 12204); assay: MIC by broth microdilution, E. faecium; assay type: cell-based; details: Enterococcus faecium, NCTC12204, read-out: MIC E. faecium
[2] = tested on: Enterococcus faecalis (strain ATCC 51575); assay: MIC by broth microdilution, E. faecalis; assay type: cell-based; details: Enterococcus faecalis, ATCC51575, read-out: MIC E. faecalis
[3] = tested on: Staphylococcus epidermidis (strain ATCC 12228); assay: MIC by broth microdilution, S. epidermidis; assay type: cell-based; details: Staphylococcus epidermidis, ATCC12228, read-out: MIC S. epidermidis
[4] = tested on: H. influenzae (strain ATCC 49247); assay: MIC by broth microdilution, H. influenzae; assay type: cell-based, Hemophilus influenzae; details: Haemophilus influenzae, ATCC49247, read-out: MIC H. influenzae
A. baumannii RpoB H535Q = assay: microbe, parasite or virus in culture; assay type: cell-based, Acinetobacter baumannii; details: Acinetobacter baumannii, RPOBH535Q, 20 h
A. baumannii RpoB H535C = assay: microbe, parasite or virus in culture; assay type: cell-based, Acinetobacter baumannii; details: Acinetobacter baumannii, RPOBH535C, 20 h
A. baumannii RpoB H535L = assay: microbe, parasite or virus in culture; assay type: cell-based, Acinetobacter baumannii; details: Acinetobacter baumannii, RPOBH535L, 20 h
[5] = tested on: A. baumannii RpoB H535Q/S521T; assay: microbe, parasite or virus in culture; assay type: cell-based, Acinetobacter baumannii; details: Acinetobacter baumannii, RPOBH535Q/S521T
A. baumannii RpoB L542F = assay: microbe, parasite or virus in culture; assay type: cell-based, Acinetobacter baumannii; details: Acinetobacter baumannii, RPOBL542F, 20 h

Structure (SMILES): CO[C@H]1/C=C/O[C@@]2(C)Oc3c(C)c(O)c4c(c3C2=O)C2=NC3(CC5CCC(C3)N5C)NC2=C(NC(=O)/C(C)=C\C=C\[C@H](C)[C@H](O)[C@@H](C)[C@@H](O)[C@@H](C)[C@H](OC(C)=O)[C@@H]1C)C4=O (single isomer, unassigned) [Compound 13B]
- MIC S. aureus (S. aureus): 0.016 µg/mL (≈ 0.0193 µM)
- MIC (A. baumannii; Acinetobacter baumannii, 20 h, read-out: A. baumannii MIC, WT, Table 4, RPMI + FCS): ≤ 0.002 µg/mL
- MIC A. baumannii (A. baumannii; RPMI medium supplemented with 10% FCS, 35° C. 20 hours): < 0.002 µg/mL
- MIC [1]: 0.125 µg/mL (≈ 0.15 µM)
- MIC [2]: 0.5 µg/mL (≈ 0.602 µM)
- MIC [3]: < 0.002 µg/mL
- MIC [4]: 0.125 µg/mL (≈ 0.15 µM)
- MIC (A. baumannii RpoB H535Q; read-out: A. baumannii MIC, RpoB H535Q, Table 4, RPMI + FCS): ≤ 0.002 µg/mL
- MIC (A. baumannii RpoB H535Q; read-out: MIC, RpoB mutation H535Q, Table 5 part 1 c2, 1st H535Q isolate, RPMI + 10% FCS): ≤ 0.002 µg/mL
- MIC (A. baumannii RpoB H535Q; read-out: MIC, RpoB mutation H535Q, Table 5 part 1 c3, 2nd H535Q isolate, RPMI + 10% FCS): 4 µg/mL
- MIC (A. baumannii RpoB H535Q; read-out: MIC, RpoB mutation H535Q, Table 5 part 1 c4, 3rd H535Q isolate, RPMI + 10% FCS): 2 µg/mL
- MIC (A. baumannii RpoB H535C; read-out: A. baumannii MIC, RpoB H535C, Table 4, RPMI + FCS): ≤ 0.002 µg/mL
- MIC (A. baumannii RpoB H535C; read-out: MIC, RpoB mutation H535C, Table 5 part 2 c1, 1st H535C isolate, RPMI + 10% FCS): ≤ 0.002 µg/mL
- MIC (A. baumannii RpoB H535C; read-out: MIC, RpoB mutation H535C, Table 5 part 2 c2, 2nd H535C isolate, RPMI + 10% FCS): 0.002 µg/mL
- MIC (A. baumannii RpoB H535C; read-out: MIC, RpoB mutation H535C, Table 5 part 2 c3, 3rd H535C isolate, RPMI + 10% FCS): 0.004 µg/mL
- MIC (A. baumannii RpoB H535C; read-out: MIC, RpoB mutation H535C, Table 5 part 2 c4, 4th H535C isolate, RPMI + 10% FCS): 0.016 µg/mL
- MIC (A. baumannii RpoB H535L; read-out: A. baumannii MIC, RpoB H535L, Table 4, RPMI + FCS): 0.03 µg/mL
- MIC (A. baumannii RpoB H535L; read-out: MIC, RpoB mutation H535L, Table 5 part 2 c5, 1st H535L isolate, RPMI + 10% FCS): 0.004 µg/mL
- MIC (A. baumannii RpoB H535L; read-out: MIC, RpoB mutation H535L, Table 5 part 2 c6, 2nd H535L isolate, RPMI + 10% FCS): ≤ 0.002 µg/mL
- MIC (A. baumannii RpoB H535L; read-out: MIC, RpoB mutation H535L, Table 5 part 3 c1, 3rd H535L isolate, RPMI + 10% FCS): 0.25 µg/mL
- MIC (A. baumannii RpoB H535L; read-out: MIC, RpoB mutation H535L, Table 5 part 3 c6, 4th H535L isolate, RPMI + 10% FCS): 0.03 µg/mL
- MIC (A. baumannii RpoB H535L; read-out: MIC, RpoB mutation H535L, Table 5 part 3 c7, 5th H535L isolate, RPMI + 10% FCS): 0.03 µg/mL
- MIC ([5]; read-out: MIC, RpoB mutation H535Q/S521T, Table 5 part 1 c5, 1st H535Q/S521T isolate, RPMI + 10% FCS): 0.5 µg/mL
- MIC ([5]; read-out: MIC, RpoB mutation H535Q/S521T, Table 5 part 1 c6, 2nd H535Q/S521T isolate, RPMI + 10% FCS): 1 µg/mL
- MIC (A. baumannii RpoB L542F; read-out: MIC, RpoB mutation L542F, Table 5 part 3 c2, 1st L542F isolate, RPMI + 10% FCS): 0.002 µg/mL
- MIC (A. baumannii RpoB L542F; read-out: MIC, RpoB mutation L542F, Table 5 part 3 c3, 2nd L542F isolate, RPMI + 10% FCS): 0.125 µg/mL
